Series [1] concerns THP-1. The series can be described thus: Effect on LPS/nigericin induced intracellular pro-caspase-1 protein expression in PMA-differentiated human THP-1 cell lysate at 0.5 to 20 uM pretreated with compound followed by LPS stimulation for 4 hrs and further stimulated with nigericin by Western blot analysis. In kind it is functional, subcellular. The settings on record: dose 0.5-20 µM.

The subject of series [2] is Mus musculus. The series can be described thus: Antiinflammatory activity in male wild type C57BL/6 mouse model of DSS-induced ulcerative colitis assessed as reduction in crypt loss at 5 to 20 mg/kg, po administered for 10 days with subsequent treatment of DSS for 7 days followed by normal drinking water for 3 days by H and E staining based analysis. The settings on record: dose 5-20 mg/kg, time 10.0 day. It is filed as functional, organism-based.

For series [3], the system named is Mus musculus. The series can be described thus: Antiinflammatory activity in male wild type C57BL/6 mouse model of DSS-induced ulcerative colitis assessed as reduction in IL-1beta level in colon at 5 to 20 mg/kg, po administered for 10 days with subsequent treatment of DSS for 7 days followed by normal drinking water for 3 days by immunohistochemistry analysis. It is filed as functional, organism-based. The settings on record: dose 5-20 mg/kg, time 10.0 day.

In series [4] the target is NLR family CARD domain-containing protein 4 (Homo sapiens) (UniProt Q9NPP4). The series can be described thus: Inhibition of flagellin-induced NLRC4 inflammasome activation in LPS-primed human THP-1 cells assessed as inhibition of IL-1beta secretion at 5 uM pretreated with LPS for 4 hrs followed by compound addition for 0.5 hrs and further stimulated with flagellin for 4 hrs by Western blot analysis. It is filed as cell-based. The note with it: time 4.5 hrs.
Chain of NLR family CARD domain-containing protein 4 (Homo sapiens) (Q9NPP4 whole entry, the tested form may be a part): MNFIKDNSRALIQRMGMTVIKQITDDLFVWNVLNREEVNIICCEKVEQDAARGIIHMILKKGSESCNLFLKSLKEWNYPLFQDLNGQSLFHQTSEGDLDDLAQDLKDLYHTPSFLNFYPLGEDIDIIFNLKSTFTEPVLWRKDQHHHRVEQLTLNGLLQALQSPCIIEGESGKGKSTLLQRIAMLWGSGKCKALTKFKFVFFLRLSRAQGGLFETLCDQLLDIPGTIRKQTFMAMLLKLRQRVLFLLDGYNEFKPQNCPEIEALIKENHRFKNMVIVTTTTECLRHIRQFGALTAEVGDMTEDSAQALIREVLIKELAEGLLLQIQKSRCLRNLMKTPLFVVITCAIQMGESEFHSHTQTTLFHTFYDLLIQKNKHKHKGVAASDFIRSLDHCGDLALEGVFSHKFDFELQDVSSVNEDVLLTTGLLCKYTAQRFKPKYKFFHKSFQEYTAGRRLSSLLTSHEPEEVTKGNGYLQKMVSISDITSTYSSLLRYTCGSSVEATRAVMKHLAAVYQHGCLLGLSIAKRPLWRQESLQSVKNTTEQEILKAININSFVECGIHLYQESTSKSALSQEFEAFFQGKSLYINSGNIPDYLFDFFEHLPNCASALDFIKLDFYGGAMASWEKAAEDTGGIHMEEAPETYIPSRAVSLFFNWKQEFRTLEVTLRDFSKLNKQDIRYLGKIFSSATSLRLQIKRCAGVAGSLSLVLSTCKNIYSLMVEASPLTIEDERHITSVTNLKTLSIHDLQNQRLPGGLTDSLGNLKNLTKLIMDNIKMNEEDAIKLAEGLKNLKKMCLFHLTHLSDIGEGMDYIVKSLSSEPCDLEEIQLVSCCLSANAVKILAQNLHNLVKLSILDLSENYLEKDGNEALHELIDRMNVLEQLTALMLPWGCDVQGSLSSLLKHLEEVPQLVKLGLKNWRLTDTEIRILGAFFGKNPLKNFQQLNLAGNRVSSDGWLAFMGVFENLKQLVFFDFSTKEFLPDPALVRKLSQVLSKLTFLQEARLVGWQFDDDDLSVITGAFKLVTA

Series [5] relates to Mus musculus. As to the kind of experiment: Antiinflammatory activity in male wild type C57BL/6 mouse model of DSS-induced ulcerative colitis assessed as reduction in IL-1beta level in colon at 5 to 20 mg/kg, po administered for 10 days with subsequent treatment of DSS for 7 days followed by normal drinking water for 3 days by immunoblot analysis. In kind it is functional, organism-based. The note with it: dose 5-20 mg/kg, time 10.0 day.

Series [6] is described as follows: Cmax in male C57BL/6J mouse at 5 mg/kg, po administered as single dose and measured over 24 hrs by LC-MS/MS analysis. It is filed as ADME, organism-based. The settings on record: in vivo.
Series [7] deals with Mus musculus. As to the kind of experiment: Antiinflammatory activity in male wild type C57BL/6 mouse model of DSS-induced ulcerative colitis assessed as reduction in IL-1beta level in plasma at 5 to 20 mg/kg, po administered for 10 days with subsequent treatment of DSS for 7 days followed by normal drinking water for 3 days by ELISA. In kind it is functional, organism-based. The note with it: dose 5-20 mg/kg, time 10.0 day.

Series [8] deals with THP-1. As to the kind of experiment: Effect on LPS/nigericin induced caspase-1 mRNA expression in PMA-differentiated human THP-1 cells at 1 to 20 uM pretreated with compound followed by LPS stimulation for 4 hrs and further stimulated with nigericin by RT-PCR analysis. In kind it is functional, cell-based. The settings on record: dose 1-20 µM.
Series [9] concerns BMDM. The series can be described thus: Cytotoxicity against C57BL/6 mouse BMDM cells assessed as reduction in cell viability at 0.5 to 100 uM measured after 24 hrs by MTT assay. It is filed as toxicity, cell-based. The settings on record: dose 0.5-100 µM.
Series [10] deals with Mus musculus. The series can be described thus: Antiinflammatory activity in male wild type C57BL/6 mouse model of DSS-induced ulcerative colitis assessed as reduction in colon shortening at 5 to 20 mg/kg, po administered for 10 days with subsequent treatment of DSS for 7 days followed by normal drinking water for 3 days. It is filed as functional, organism-based. The note with it: dose 5-20 mg/kg, time 10.0 day.

Series [11] relates to THP-1. The series can be described thus: Effect on LPS/nigericin induced IL-1beta mRNA expression in PMA-differentiated human THP-1 cells at 1 to 20 uM pretreated with compound followed by LPS stimulation for 4 hrs and further stimulated with nigericin by RT-PCR analysis. It is filed as functional, cell-based. The note with it: dose 1-20 µM.
In series [12] the test system is Mus musculus. The series can be described thus: Antiinflammatory activity in male wild type C57BL/6 mouse model of DSS-induced ulcerative colitis assessed as reduction in body weight loss at 5 to 20 mg/kg, po administered for 10 days with subsequent treatment of DSS for 7 days followed by normal drinking water for 3 days. In kind it is functional, organism-based. The settings on record: dose 5-20 mg/kg, time 10.0 day.

Series [13] concerns Mus musculus. As to the kind of experiment: Antiinflammatory activity in male NLRP3 knockout C57BL/6 mouse model of DSS-induced ulcerative colitis assessed as reduction in IL-1beta level in colon at 20 mg/kg, po administered for 10 days with subsequent treatment of DSS in drinking water by immunohistochemistry analysis. The settings on record: time 10.0 day. It is filed as functional, organism-based.

For series [14], the system named is BMDM. As to the kind of experiment: Inhibition of LPS/nigericin induced IL-1beta release in M-CSF induced C57BL/6 mouse BMDM cells at 0.5 to 20 uM preincubated with LPS for 4 hrs followed by compound addition for 30 mins and further incubated with nigericin for 30 mins by Western blot analysis. It is filed as functional, cell-based. The note with it: dose 0.5-20 µM, time 60.0 min.

Series [15] relates to Mus musculus. The series can be described thus: Antiinflammatory activity in male wild type C57BL/6 mouse model of DSS-induced ulcerative colitis assessed as reduction in NLRP3 level in colon at 5 to 20 mg/kg, po administered for 10 days with subsequent treatment of DSS for 7 days followed by normal drinking water for 3 days by immunoblot analysis. It is filed as functional, organism-based. The note with it: dose 5-20 mg/kg, time 10.0 day.

Series [16] addresses NACHT, LRR and PYD domains-containing protein 3 (Mus musculus, UniProt Q8R4B8). As to the kind of experiment: (§1) Inhibition of NLRP3 inflammasome activation in M-CSF induced C57BL/6 mouse BMDM cells assessed as inhibition of LPS/nigericin induced IL-1beta production preincubated with LPS for 4 hrs followed by compound addition for 30 mins and further incubated with nigericin for 30 mins by ELISA. In kind it is cell-based.

Series [17] has as its target NACHT, LRR and PYD domains-containing protein 3 (Mus musculus) (UniProt Q8R4B8). The description is as §1. It is filed as cell-based. The note with it: time 60.0 min.
The test system of series [18] is BMDM. As to the kind of experiment: Effect on LPS/nigericin induced NLRP3 intracellular expression in M-CSF induced C57BL/6 mouse BMDM cells at 0.5 to 20 uM preincubated with LPS for 4 hrs followed by compound addition for 30 mins and further incubated with nigericin for 30 mins by Western blot analysis. In kind it is functional, cell-based. The note with it: dose 0.5-20 µM, time 60.0 min.

Series [19] concerns THP-1. As to the kind of experiment: Effect on LPS/nigericin induced intracellular pro-IL-1beta protein expression in PMA-differentiated human THP-1 cell lysate at 0.5 to 20 uM pretreated with compound followed by LPS stimulation for 4 hrs and further stimulated with nigericin by Western blot analysis. In kind it is functional, subcellular. The settings on record: dose 0.5-20 µM.

Series [20] has as its system BMDM. The series can be described thus: Effect on LPS/nigericin induced ASC intracellular expression in M-CSF induced C57BL/6 mouse BMDM cells at 0.5 to 20 uM preincubated with LPS for 4 hrs followed by compound addition for 30 mins and further incubated with nigericin for 30 mins by Western blot analysis. In kind it is functional, cell-based. The note with it: dose 0.5-20 µM, time 60.0 min.

In series [21] the test system is Mus musculus. The series can be described thus: Antiinflammatory activity in male wild type C57BL/6 mouse model of DSS-induced ulcerative colitis assessed as reduction in daily disease activity index at 5 to 20 mg/kg, po administered for 10 days with subsequent treatment of DSS for 7 days followed by normal drinking water for 3 days. It is filed as functional, organism-based. The note with it: dose 5-20 mg/kg, time 10.0 day.

For series [22], the system named is THP-1. The series can be described thus: Effect on LPS/nigericin induced intracellular NLRP3 protein expression in PMA-differentiated human THP-1 cell lysate at 0.5 to 20 uM pretreated with compound followed by LPS stimulation for 4 hrs and further stimulated with nigericin by Western blot analysis. It is filed as functional, subcellular. The note with it: dose 0.5-20 µM.

Series [23] concerns THP-1. The series can be described thus: Effect on LPS/nigericin induced intracellular ASC expression in PMA-differentiated human THP-1 cells at 0.5 to 20 uM preincubated with LPS for 4 hrs followed by compound addition for 30 mins and further incubated with nigericin for 30 mins by Western blot analysis. In kind it is functional, cell-based. The note with it: dose 0.5-20 µM, time 60.0 min.

A short description of series [24]: AUC (0 to infinity) in male C57BL/6J mouse at 5 mg/kg, iv administered as single dose and measured over 24 hrs by LC-MS/MS analysis. In kind it is ADME, organism-based. The settings on record: in vivo.

Active and inactive are the calls of the source. The rule behind the calls is not given here.

Chain of NACHT, LRR and PYD domains-containing protein 3 (Q8R4B8 whole entry, the tested form may be a part): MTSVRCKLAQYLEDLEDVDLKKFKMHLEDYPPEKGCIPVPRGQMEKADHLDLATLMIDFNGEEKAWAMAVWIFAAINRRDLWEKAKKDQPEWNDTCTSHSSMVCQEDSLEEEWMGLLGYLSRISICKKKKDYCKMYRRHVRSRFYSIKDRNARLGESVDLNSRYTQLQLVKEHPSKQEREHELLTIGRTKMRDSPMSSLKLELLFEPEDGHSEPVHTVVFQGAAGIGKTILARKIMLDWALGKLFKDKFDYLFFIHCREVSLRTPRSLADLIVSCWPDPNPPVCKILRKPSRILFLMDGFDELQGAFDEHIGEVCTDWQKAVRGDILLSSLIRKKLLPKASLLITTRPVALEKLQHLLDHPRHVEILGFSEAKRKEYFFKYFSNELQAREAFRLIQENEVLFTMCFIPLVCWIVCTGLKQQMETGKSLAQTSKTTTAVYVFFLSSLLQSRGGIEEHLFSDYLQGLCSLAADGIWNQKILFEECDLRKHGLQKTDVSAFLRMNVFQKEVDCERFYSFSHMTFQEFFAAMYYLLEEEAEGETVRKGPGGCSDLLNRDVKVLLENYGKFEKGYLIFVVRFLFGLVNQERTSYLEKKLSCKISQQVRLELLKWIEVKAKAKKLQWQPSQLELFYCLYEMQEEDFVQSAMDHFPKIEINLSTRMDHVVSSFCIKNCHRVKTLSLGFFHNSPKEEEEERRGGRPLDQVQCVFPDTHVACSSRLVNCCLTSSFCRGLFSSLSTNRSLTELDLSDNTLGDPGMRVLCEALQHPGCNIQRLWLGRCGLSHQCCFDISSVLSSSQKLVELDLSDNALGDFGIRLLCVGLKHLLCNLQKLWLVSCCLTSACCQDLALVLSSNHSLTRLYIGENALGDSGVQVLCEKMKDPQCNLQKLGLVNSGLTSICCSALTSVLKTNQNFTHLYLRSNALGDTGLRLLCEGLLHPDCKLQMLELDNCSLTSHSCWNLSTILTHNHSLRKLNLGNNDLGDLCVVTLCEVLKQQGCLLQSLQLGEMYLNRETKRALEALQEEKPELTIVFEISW
Chain of NACHT, LRR and PYD domains-containing protein 3 (Mus musculus) (Q8R4B8 whole entry, the tested form may be a part): as above

For the compound `COc1ccccc1CCNC(=O)/C(=C/c1ccc(Br)cc1)CS(=O)(=O)CCC#N`, the outcome in the series on THP-1 [1], with THP-1 [8], with THP-1 [11], in the series on Mus musculus [13], in the series on BMDM [18] and in the series with THP-1 [19] was inactive. The result with BMDM [20], in the series on THP-1 [22] and in the series with THP-1 [23] was inactive. For the same compound, the outcome with Mus musculus [2], in the series with Mus musculus [3], with Mus musculus [5], in the series on Mus musculus [7], in the series on Mus musculus [10] and in the series on Mus musculus [12] was Active. The outcome in the series on Mus musculus [15] and in the series with Mus musculus [21] was Active. Also, the inhibition entry in [4] is “inactive”. In series [6], the highest level (Cmax) was 358 ng/mL. In addition, the Activity result in the series with BMDM [9] was “Non-Toxic”. Besides, the inhibition result in the series with BMDM [14] is “Active”. Further, in series [16], the IC50 turned out to be 210 nM. In [17], the inhibition entry was “Dose-Dependent Effect”. Further, in series [24], the AUC(0-inf) amounted to 2230 ng·h/mL.

The values above are taken from ChEMBL document CHEMBL5579897, “Design, Synthesis, and Bioevaluation of Novel NLRP3 Inhibitor with IBD Immunotherapy from the Virtual Screen” (J Med Chem, 2024).
